Laboratory results published in a compilation of properties of binary mixtures (doi:10.1007/s10953-009-9410-7).

Experiment: xn = mol fraction of the nth substance listed
Conditions: 101 kPa

CCCC[n+]1ccn(C)c1.N#C[S-] + CCCCO
viscosity [mPa·s]
Conditions | 298.15 K | 308.15 K | 318.15 K | 328.15 K | 338.15 K | 348.15 K
x2 = 0 | 51.7 | 34.9 | 24.2 | 16.7 | 12.7 | 9.98
x2 = 0.0911 | 39.2 | 26.5 | – | 14.2 | 11 | 8.82
x2 = 0.3317 | 21.2 | 15.2 | 11.5 | 8.92 | 7.12 | –
x2 = 0.4552 | 15.3 | 11.3 | 8.7 | – | 5.51 | 4.51
x2 = 0.5596 | – | 8.44 | – | 5.16 | – | 3.5
x2 = 0.6222 | – | 7.04 | – | 4.39 | – | 3.02
x2 = 0.6834 | 7.53 | – | – | – | 3.08 | 2.59
x2 = 0.79 | – | 4.12 | 3.3 | 2.69 | 2.24 | 1.89
x2 = 0.8487 | 4.37 | 3.43 | 2.75 | 2.25 | 1.87 | 1.58
x2 = 0.8975 | 3.74 | 2.94 | 2.36 | 1.92 | 1.6 | –
x2 = 0.9738 | – | 2.27 | – | 1.46 | 1.2 | –

CCCCCO + CCCC[n+]1ccn(C)c1.N#C[S-]
x1 = 1
Conditions | viscosity [mPa·s]
308.15 K | 2.57
318.15 K | 2
328.15 K | 1.58
338.15 K | 1.27
348.15 K | 1.03

CCCCCCO + CCCC[n+]1ccn(C)c1.N#C[S-]
x1 = 1
Conditions | viscosity [mPa·s]
298.15 K | 4.48
318.15 K | 2.55
328.15 K | 1.98
348.15 K | 1.28

CCCC[n+]1ccn(C)c1.N#C[S-] + CCCCCCO
viscosity [mPa·s]
Conditions | 298.15 K | 308.15 K | 318.15 K | 328.15 K | 338.15 K | 348.15 K
x2 = 0 | 51.7 | 34.9 | 24.2 | 16.7 | 12.7 | 9.98
x2 = 0.0424 | 44.4 | 29.7 | 21 | 15.6 | – | –
x2 = 0.1505 | – | – | 17.7 | 13.3 | 10.3 | 8.26
x2 = 0.3093 | 26.1 | 18.3 | 13.5 | 10.3 | – | 6.54
x2 = 0.453 | 18.2 | – | 9.87 | 7.65 | – | 4.92
x2 = 0.5773 | 13.8 | 10.2 | 7.71 | 6 | – | 3.88
x2 = 0.6307 | 12.1 | 9.01 | – | 5.39 | 4.3 | 3.51
x2 = 0.6962 | 10.3 | 7.67 | 5.87 | – | 3.67 | 3.04
x2 = 0.7583 | 8.77 | 6.54 | 4.98 | – | 3.18 | 2.65
x2 = 0.8512 | 6.83 | 5.15 | 3.99 | – | 2.57 | 2.1
x2 = 0.9102 | 5.87 | – | – | 2.69 | 2.17 | 1.77

CCCC[n+]1ccn(C)c1.N#C[S-] + CCCCCO
viscosity [mPa·s]
Conditions | 298.15 K | 308.15 K | 318.15 K | 328.15 K | 338.15 K | 348.15 K
x2 = 0 | 51.7 | 34.9 | 24.2 | 16.7 | – | 9.98
x2 = 0.0193 | 46.9 | – | 21.9 | 16.2 | 12.5 | 9.88
x2 = 0.1443 | 34.2 | – | 17 | 12.8 | 9.98 | 7.97
x2 = 0.2751 | 26 | 18.3 | 13.5 | 10.4 | 8.2 | –
x2 = 0.3843 | 20 | 14.4 | 10.9 | 8.49 | – | –
x2 = 0.487 | 15.5 | 11.4 | 8.74 | 6.84 | 5.48 | 4.47
x2 = 0.5557 | 12.7 | 9.5 | – | 5.74 | 4.61 | 3.78
x2 = 0.616 | 10.8 | 8.15 | 6.63 | 5.05 | – | 3.42
x2 = 0.7302 | 7.74 | 5.89 | 4.62 | – | 3.04 | 2.54
x2 = 0.7914 | 6.49 | 4.97 | 3.92 | 3.16 | 2.6 | –
x2 = 0.856 | 5.38 | 4.14 | 3.27 | 2.63 | 2.16 | 1.8
x2 = 0.9135 | 4.56 | – | 2.77 | 2.22 | 1.81 | –

CCCCO + CCCC[n+]1ccn(C)c1.N#C[S-]
x1 = 1
Conditions | viscosity [mPa·s]
298.15 K | 2.52
308.15 K | 1.97
318.15 K | 1.56
338.15 K | 1.02
